Assays:
[1] = Stability of Compound 1 in soft gelatin capsules (sugar alcohol plasticizer) on storage, amount determined by HPLC; type: physicochemical
Description: Sugar alcohol solution derived from corn starch 60 parts by weight was added in an appropriate amount of water, stirred and heated. Then, gelatin 100 parts by weight was added thereto to give gelatin solution. Compound 1 was dissolved in medium chain fatty acid triglyceride (USP/NF grade) to give a liquid mixture containing 120 μg/g of compound 1. The gelatin solution and the liquid mixture were loaded on a soft capsule forming and filling machine to give capsule containing the liquid mixture, and dried to give soft gelatin capsule with an appropriate hardness.
The soft gelatin capsules obtained in the formulation example were kept at 40° C. for 6 months or at 55° C. for one month. After that, 20 capsules were swelled with purified water and ethyl acetate (HPLC grade) 10 ml was added thereto. The capsule was then cut opened and the liquid contained therein was obtained. 1 ml of the internal standard solution per 100 μg of theoretical amount of compound 1 was added to the liquid, and ethyl acetate (HPLC grade) was added so that the theoretical concentration of compound 1 was 10 μg/mL to give a sample solution.
On the other hand, about 0.025 g of standard Compound 1 was precisely weighted and added with ethyl acetate (HPLC grade) to give exactly 100 mL solution. 2 mL of the solution was measured, exactly 5 mL of the internal standard solution was added thereto and ethyl acetate (HPLC grade) was added so that the total amount was 50 mL to give the standard compound 1 solution.
The fluorescent labeling agent was added to the sample and standard solutions, stirred and reacted at room temperature.
The respective solution in an amount that theoretically gives 3.6 ng of compound 1 was loaded on the column and analyzed under the condition as follows: HPLC analysis condition:
(§1) Column: 5 mm×25 cm stainless steel column packed with octadecylsilane treated silica gel for HPLC (5 μm)
Mobile phase: mixture of acetonitrile HPLC grade: methanol HPLC grade: ammonium acetate (0.05 mol/L)
(§2) Detector: spectrophotofluorometer
The amount of the compound 1 in the sample solution was determined by using a one point calibration curve.

[2] = Stability of Compound 1 in vehicle stored at 55° C., amount determined by HPLC; type: physicochemical; settings: for day 10, percentage based on the theoretical amount (250 μg/g): stored at 55° C.
Description: Compound 1 was dissolved in a vehicle shown in table 1 below to give 250 μg/g solution. Then, the solution was put in a hard grass container and heated at 55° C. The precise amount of Compound 1 in the solution was determined by means of HPLC (day 0). The container was kept at 55° C. for 10 days and after that the precise amount of the compound 1 was determined by means of HPLC (day 10).
The determination of the amount of the compound was carried out as follows. About 0.2 g of the sample was mixed with exactly 2 mL of internal standard solution and then with a dissolving agent shown in Table 1 to give 5 ml of sample solution. About 5 mg of the reference standard compound 1 was weighted precisely and added with acetonitrile to give exactly 50 mL solution. Exactly 1 ml of the solution was obtained and added with exactly 4 mL of the internal standard solution, and then added with the dissolving agent to give 10 mL of reference solution.
The fluorescent labeling agent was added to the respective solution, stirred and stood at room temperature for more than 30 minutes. After that, 2% acetic acid in acetonitrile was added to the solution, stirred and reacted at room temperature for more 30 minutes to give the sample and standard solutions. Then, the respective solution in an amount that theoretically gives 3.6 ng of compound 1 was loaded on the column and analyzed under the condition as follows:
as §1
Mobile phase: mixture of acetonitrile (HPLC grade) and perchlorate buffer
as §2
According to the same manner as described in Example 1, stability of the compound 1 in various vehicles was measured.

amounts of compound 1 (% vs day 0), Initial ([1]; soft gelatin capsule, gelatin 100 / sugar alcohol solution 60, 120 μg/g in medium chain fatty acid triglyceride, 40° C.): 100 % vs day 0 | amounts of compound 1 (% vs day 0), Initial ([1]; soft gelatin capsule, gelatin 100 / sugar alcohol solution 60, 120 μg/g in medium chain fatty acid triglyceride, 55° C.): 100 % vs day 0 | amounts of compound 1 (% vs day 0), 1 mo ([1]; soft gelatin capsule, gelatin 100 / sugar alcohol solution 60, 120 μg/g in medium chain fatty acid triglyceride, stored at 40° C., 1 mo): 99.8 % vs day 0 | amounts of compound 1 (% vs day 0), 3 mo ([1]; soft gelatin capsule, gelatin 100 / sugar alcohol solution 60, 120 μg/g in medium chain fatty acid triglyceride, stored at 40° C., 3 mo): 98.0 % vs day 0 | amounts of compound 1 (% vs day 0), 6 mo ([1]; soft gelatin capsule, gelatin 100 / sugar alcohol solution 60, 120 μg/g in medium chain fatty acid triglyceride, stored at 40° C., 6 mo): 98.8 % vs day 0 | amounts of compound 1 (% vs day 0), 1 w ([1]; soft gelatin capsule, gelatin 100 / sugar alcohol solution 60, 120 μg/g in medium chain fatty acid triglyceride, stored at 55° C., 1 w): 100.2 % vs day 0 | amounts of compound 1 (% vs day 0), 2 w ([1]; soft gelatin capsule, gelatin 100 / sugar alcohol solution 60, 120 μg/g in medium chain fatty acid triglyceride, stored at 55° C., 2 w): 100.1 % vs day 0 | amounts of compound 1 (% vs day 0), 4 w ([1]; soft gelatin capsule, gelatin 100 / sugar alcohol solution 60, 120 μg/g in medium chain fatty acid triglyceride, stored at 55° C., 4 w): 99.5 % vs day 0 | effect of sugar alcohol solution/polyol on stability when used as plasticizer ([1]; sugar alcohol solution/polyol used as plasticizer of soft gelatin capsule shell): will not affect the stability | stability on admixing with a fatty acid ester ([2]; admixed with a fatty acid ester such as glyceride, 55° C., 10 days): significantly improved | stability in polyol, sugar, sugar alcohol, polyethylene glycol, polysorbate 80 and fatty acid ([2]; in polyol such as glycerine, sugar, sugar alcohol, polyethylene glycol, polysorbate 80, and fatty acid, 55° C., 10 days): poor | day 0, percentage based on the theoretical amount (250 μg/g) ([2]; no vehicle (compound 1 only), 55° C.): 95.4% | day 10, percentage based on the theoretical amount (250 μg/g) ([2]; no vehicle (compound 1 only)): 82.8% | day 0, percentage based on the theoretical amount (250 μg/g) ([2]; vehicle Macrogol 400 (polyethyleneglycol), 55° C.): 92.2% | day 10, percentage based on the theoretical amount (250 μg/g) ([2]; vehicle Macrogol 400 (polyethyleneglycol)): 80.7% | day 0, percentage based on the theoretical amount (250 μg/g) ([2]; vehicle concentrated glycerin, 55° C.): 20.9% | day 10, percentage based on the theoretical amount (250 μg/g) ([2]; vehicle concentrated glycerin): 20.0% | day 0, percentage based on the theoretical amount (250 μg/g) ([2]; vehicle corn oil, 250 μg/g solution, 55° C.): 93.1% | day 10, percentage based on the theoretical amount (250 μg/g) ([2]; vehicle corn oil, 250 μg/g solution): 94.8% | day 0, percentage based on the theoretical amount (250 μg/g) ([2]; vehicle glycerine fatty acid ester (Inwitor 742), 250 μg/g solution, 55° C.): 93.3% | day 10, percentage based on the theoretical amount (250 μg/g) ([2]; vehicle glycerine fatty acid ester (Inwitor 742), 250 μg/g solution): 96.4% | day 0, percentage based on the theoretical amount (250 μg/g) ([2]; vehicle hydrogenated maltose starch syrup, 55° C.): 5.1% | day 10, percentage based on the theoretical amount (250 μg/g) ([2]; vehicle hydrogenated maltose starch syrup): 3.5% | day 0, percentage based on the theoretical amount (250 μg/g) ([2]; vehicle isopropyl palmitate, 250 μg/g solution, 55° C.): 93.9% | day 10, percentage based on the theoretical amount (250 μg/g) ([2]; vehicle isopropyl palmitate, 250 μg/g solution): 96.7% | day 0, percentage based on the theoretical amount (250 μg/g) ([2]; vehicle medium chain fatty acid triglyceride (Miglyol 812N), 250 μg/g solution, 55° C.): 94.1% | day 10, percentage based on the theoretical amount (250 μg/g) ([2]; vehicle medium chain fatty acid triglyceride (Miglyol 812N), 250 μg/g solution): 97.0% | day 0, percentage based on the theoretical amount (250 μg/g) ([2]; vehicle oleic acid, 55° C.): 61.9% | day 10, percentage based on the theoretical amount (250 μg/g) ([2]; vehicle oleic acid): 51.6% | day 0, percentage based on the theoretical amount (250 μg/g) ([2]; vehicle polysorbate 80, 55° C.): 92.1% | day 10, percentage based on the theoretical amount (250 μg/g) ([2]; vehicle polysorbate 80): 64.5% | day 0, percentage based on the theoretical amount (250 μg/g) ([2]; vehicle propyleneglycol fatty acid ester (Rikemal PO-100V), 250 μg/g solution, 55° C.): 93.9% | day 10, percentage based on the theoretical amount (250 μg/g) ([2]; vehicle propyleneglycol fatty acid ester (Rikemal PO-100V), 250 μg/g solution): 92.1% | day 0, percentage based on the theoretical amount (250 μg/g) ([2]; vehicle soy oil, 250 μg/g solution, 55° C.): 98.2% | day 10, percentage based on the theoretical amount (250 μg/g) ([2]; vehicle soy oil, 250 μg/g solution): 94.6% | day 0, percentage based on the theoretical amount (250 μg/g) ([2]; vehicle sugar alcohol solution derived from corn starch, 55° C.): 3.8% | day 10, percentage based on the theoretical amount (250 μg/g) ([2]; vehicle sugar alcohol solution derived from corn starch): 5.6%
Compound: CCCCC(F)(F)C(=O)CCC1CCC(=O)C1CCCCCCC(=O)O (stereo not shown) [Compound 1, 11-deoxy-13,14-dihydro-15-keto-16,16-difluoro PGE1]
